The assay has as its system L1210 leukemia ip in BDF1 mice, survival T/C. The assay is described as follows: NCI In Vivo Anticancer Drug Screen. Data for tumor model L1210 Leukemia (intraperitoneal) in B6D2F1 (BDF1) mice. The following applies: endpoint: mean survival time, higher = longer survival. The method, boiled down: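 Read-out is survival time, reported as the treated-group measurement over the vehicle-control measurement.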

The mark [1] stands for this setting: dose: 100.0 mg/kg/injection, schedule: Q01DX001 (ip), vehicle: carboxymethylcellulose (CMC).
The mark [2] stands for this setting: dose: 100.0 mg/kg/injection, schedule: Q01DX009 (ip), vehicle: saline with Tween-80.
Where [3] appears, read: dose: 100.0 mg/kg/injection, schedule: Q04DX003 (ip), vehicle: saline with Tween-80.
Setting [4] is: dose: 200.0 mg/kg/injection, schedule: Q01DX009 (ip), vehicle: saline with Tween-80.
Setting [5] is: dose: 200.0 mg/kg/injection, schedule: Q04DX003 (ip), vehicle: saline with Tween-80.
Where [6] appears, read: dose: 400.0 mg/kg/injection, schedule: Q01DX009 (ip), vehicle: saline with Tween-80.
Setting [7] is: dose: 400.0 mg/kg/injection, schedule: Q04DX003 (ip), vehicle: saline with Tween-80.
The mark [8] stands for this setting: dose: 100.0 mg/kg/injection, schedule: Q01DX001 (ip), vehicle: saline.
Where [9] appears, read: dose: 200.0 mg/kg/injection, schedule: Q01DX001 (ip), vehicle: saline.
Setting [10] is: dose: 400.0 mg/kg/injection, schedule: Q01DX001 (ip), vehicle: saline.
The mark [11] stands for this setting: dose: 200.0 mg/kg/injection, schedule: Q01DX001 (ip), vehicle: carboxymethylcellulose (CMC).
[12] abbreviates: dose: 400.0 mg/kg/injection, schedule: Q01DX001 (ip), vehicle: carboxymethylcellulose (CMC).
Setting [13] is: dose: 100.0 mg/kg/injection, schedule: Q01DX009 (ip), vehicle: Klucel (hydroxypropylcellulose) (HPC).
Where [14] appears, read: dose: 100.0 mg/kg/injection, schedule: Q04DX003 (ip), vehicle: Klucel (hydroxypropylcellulose) (HPC).
Where [15] appears, read: dose: 200.0 mg/kg/injection, schedule: Q01DX009 (ip), vehicle: Klucel (hydroxypropylcellulose) (HPC).
Setting [16] is: dose: 200.0 mg/kg/injection, schedule: Q04DX003 (ip), vehicle: Klucel (hydroxypropylcellulose) (HPC).
[17] abbreviates: dose: 400.0 mg/kg/injection, schedule: Q01DX009 (ip), vehicle: Klucel (hydroxypropylcellulose) (HPC).
Setting [18] is: dose: 400.0 mg/kg/injection, schedule: Q04DX003 (ip), vehicle: Klucel (hydroxypropylcellulose) (HPC).
The mark [19] stands for this setting: dose: 100.0 mg/kg/injection, schedule: Q04DX002 (ip), vehicle: Klucel (hydroxypropylcellulose) (HPC).
Where [20] appears, read: dose: 200.0 mg/kg/injection, schedule: Q04DX002 (ip), vehicle: Klucel (hydroxypropylcellulose) (HPC).
Where [21] appears, read: dose: 400.0 mg/kg/injection, schedule: Q04DX002 (ip), vehicle: Klucel (hydroxypropylcellulose) (HPC).

From PubChem BioAssay AID248 (DTP/NCI, 2004) come the findings set out here.

Where “and” joins values, the source holds several entries; their conditions need not be identical. Equal values may be shown once. Inconclusive results and toxic doses are left out.

Consider `Cc1cccc(NC(=O)N(CCCl)N=O)c1`, for which the T/C is, setting by setting: (dose: 2.6 mg/kg/injection, schedule: Q01DX009 (ip), vehicle: carboxymethylcellulose (CMC)) 163 % of control; (dose: 4.0 mg/kg/injection, schedule: Q01DX009 (ip), vehicle: carboxymethylcellulose (CMC)) 164 % of control and 197 % of control; (dose: 6.0 mg/kg/injection, schedule: Q01DX009 (ip), vehicle: carboxymethylcellulose (CMC)) 150 % of control and 192 % of control; (dose: 25.0 mg/kg/injection, schedule: Q01DX001 (ip), vehicle: carboxymethylcellulose (CMC)) 101 % of control; (dose: 50.0 mg/kg/injection, schedule: Q01DX001 (ip), vehicle: carboxymethylcellulose (CMC)) 86 % of control; under setting [1], 86 % of control.

With `Cc1cccc(C)c1-n1c(=S)[nH]n(-c2ccccc2)c1=S`, the T/C under setting [2] is 91 % of control; the T/C under setting [3] is 96 % of control; the T/C under setting [4] is 93 % of control; the T/C under setting [5] is 96 % of control; the T/C under setting [6] was 94 % of control; the T/C under setting [7] was 105 % of control.

Turning to `COC(=O)c1cc(C)cc(N)c1C`, the T/C is, setting by setting: under setting [8], 102 % of control; under setting [9], 109 % of control; under setting [10], 104 % of control.

With `CC12CCC(=O)C=C1CCCC2=O` (stereo not drawn), the T/C was 95 % of control (dose: 100.0 mg/kg/injection, schedule: Q04DX003 (ip), vehicle: saline) and 101 % of control (dose: 200.0 mg/kg/injection, schedule: Q04DX003 (ip), vehicle: saline).

Regarding `CCCN(CCC#N)CN1C(=O)c2ccccc2C1=O`, the T/C was 110 % of control under setting [1]; 90 % of control (dose: 100.0 mg/kg/injection, schedule: Q01DX009 (ip), vehicle: carboxymethylcellulose (CMC)); 98 % of control and 100 % of control (dose: 100.0 mg/kg/injection, schedule: Q04DX002 (ip), vehicle: carboxymethylcellulose (CMC)); 95 % of control (dose: 100.0 mg/kg/injection, schedule: Q04DX003 (ip), vehicle: carboxymethylcellulose (CMC)); 113 % of control under setting [11]; 93 % of control (dose: 200.0 mg/kg/injection, schedule: Q01DX009 (ip), vehicle: carboxymethylcellulose (CMC)). For the same compound, the T/C runs as follows: (dose: 200.0 mg/kg/injection, schedule: Q04DX002 (ip), vehicle: carboxymethylcellulose (CMC)) 94 % of control and 102 % of control; (dose: 200.0 mg/kg/injection, schedule: Q04DX003 (ip), vehicle: carboxymethylcellulose (CMC)) 101 % of control; under setting [12], 97 % of control; (dose: 400.0 mg/kg/injection, schedule: Q01DX009 (ip), vehicle: carboxymethylcellulose (CMC)) 100 % of control; (dose: 400.0 mg/kg/injection, schedule: Q04DX002 (ip), vehicle: carboxymethylcellulose (CMC)) 94 % of control and 97 % of control; (dose: 400.0 mg/kg/injection, schedule: Q04DX003 (ip), vehicle: carboxymethylcellulose (CMC)) 107 % of control.

For the compound `CC12C=CC(C=C1)C(O)C2` (stereo not drawn), the T/C under setting [13] was 101 % of control; the T/C under setting [14] is 97 % of control; the T/C under setting [15] is 114 % of control; the T/C under setting [16] is 96 % of control; the T/C under setting [17] was 90 % of control; the T/C under setting [18] was 94 % of control.

Consider `O=CN1CCN(c2ccccc2)CC1`, for which the T/C is 97 % of control under setting [19], 87 % of control under setting [20] and 91 % of control under setting [21].

In the case of `COc1ccc(Cl)cc1NC(=O)Oc1ccc(Br)cc1Br`, the T/C under setting [2] was 94 % of control, the T/C under setting [4] is 104 % of control and the T/C under setting [6] is 99 % of control.

With `O=C1NC(c2ccc(Cl)cc2)N2C(=O)NC(c3ccc(Cl)cc3)N12` (stereo not drawn), the T/C is 97 % of control (dose: 50.0 mg/kg/injection, schedule: Q04DX002 (ip), vehicle: saline with Tween-80); 94 % of control (dose: 100.0 mg/kg/injection, schedule: Q04DX002 (ip), vehicle: saline with Tween-80); 97 % of control (dose: 200.0 mg/kg/injection, schedule: Q04DX002 (ip), vehicle: saline with Tween-80).

With `Cc1cccc(/C=C2/SC(=S)N(c3ccccc3)C2=O)c1`, the T/C is, setting by setting: under setting [8], 100 % of control; under setting [9], 98 % of control; under setting [10], 105 % of control.

Turning to `CN1Cc2ccccc2/C=C\c2ccccc21`, the T/C is, setting by setting: under setting [19], 103 % of control; under setting [20], 106 % of control; under setting [21], 100 % of control.

In the case of `CCC1(C)CC(=O)N(C/C=C(\C)CCC=C(C)C)C(=O)C1`, the T/C is 100 % of control under setting [3], 105 % of control under setting [5] and 97 % of control under setting [7].

For `CC(=O)C(c1ccccc1)(c1ccccc1)c1ccccc1`, the T/C reads like this: under setting [3], 96 % of control; under setting [5], 93 % of control; under setting [7], 91 % of control.

In the case of `O=C(Nc1c(Cl)c(Cl)c2c(c1Cl)Cc1cc(Cl)ccc1-2)C(Cl)Cl`, the T/C is 101 % of control under setting [1], 101 % of control under setting [11] and 106 % of control under setting [12].

In the case of `COc1cc2c(cc1O)C(=O)CCC2`, the T/C (dose: 50.0 mg/kg/injection, schedule: Q01DX009 (ip), vehicle: saline with Tween-80) was 107 % of control; the T/C under setting [2] was 96 % of control; the T/C under setting [4] is 93 % of control.

Regarding `CCOP(=O)(OCC)OCCSCC`, the T/C runs as follows: (dose: 75.0 mg/kg/injection, schedule: Q01DX001 (ip), vehicle: saline) 103 % of control; (dose: 150.0 mg/kg/injection, schedule: Q01DX001 (ip), vehicle: saline) 102 % of control.

In the case of `CC(=O)c1ccc(Br)c2ccccc12`, the T/C by setting is: (dose: 50.0 mg/kg/injection, schedule: Q04DX003 (ip), vehicle: saline with Tween-80) 95 % of control; under setting [3], 100 % of control; under setting [5], 97 % of control; under setting [7], 94 % of control.

Take `Cc1c2c(cc3c1OCN(C)C3)CN(C)CO2`: the T/C was 104 % of control (dose: 50.0 mg/kg/injection, schedule: Q01DX001 (ip), vehicle: saline); 101 % of control under setting [8]; 107 % of control under setting [9].

For `CCCCOP(=O)(NC12CC3CC(CC(C3)C1)C2)OCCCC`, the T/C is 97 % of control under setting [13]; 100 % of control under setting [14]; 97 % of control under setting [15]; 92 % of control under setting [16]; 100 % of control under setting [17]; 96 % of control under setting [18].

As to `Nc1cc(Cl)cc2[nH]c(=O)c3cc(Cl)ccc3c12`, the T/C is 100 % of control under setting [1], 102 % of control under setting [11] and 95 % of control under setting [12].

With `CC(=O)OCC(C(=O)O)(c1ccccc1)c1ccccc1`, the T/C reads like this: (dose: 55.0 mg/kg/injection, schedule: Q01DX Z (ip), vehicle: methylcellulose (MC)) 94 % of control; (dose: 83.0 mg/kg/injection, schedule: Q01DX Z (ip), vehicle: methylcellulose (MC)) 98 % of control; (dose: 125.0 mg/kg/injection, schedule: Q01DX Z (ip), vehicle: methylcellulose (MC)) 93 % of control.
